In assay [1] the target is T1, FLT3 (Homo sapiens, UniProt P36888).
T1 construct: purchased Invitrogen PV3182
T1 sequence (P36888 564-993 limits assumed): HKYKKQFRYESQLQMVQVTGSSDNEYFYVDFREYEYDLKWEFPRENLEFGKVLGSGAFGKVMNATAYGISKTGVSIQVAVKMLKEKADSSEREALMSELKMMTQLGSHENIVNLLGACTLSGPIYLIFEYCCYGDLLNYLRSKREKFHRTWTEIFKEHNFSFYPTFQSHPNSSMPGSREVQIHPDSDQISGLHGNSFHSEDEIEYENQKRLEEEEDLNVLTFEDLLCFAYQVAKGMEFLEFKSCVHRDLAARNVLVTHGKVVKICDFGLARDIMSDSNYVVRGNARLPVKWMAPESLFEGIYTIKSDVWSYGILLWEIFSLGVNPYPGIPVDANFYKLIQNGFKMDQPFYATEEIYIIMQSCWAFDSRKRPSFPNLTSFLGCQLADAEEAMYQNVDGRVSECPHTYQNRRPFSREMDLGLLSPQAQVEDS
Nature of the assay: Cell-free kinase assay, single dose (Reaction Biology, ADP-Glo). As to conditions: inhibitor 500 nM; 100 μM ATP; average of duplicate. In kind it is biochemical. The protocol:
Cell-free kinase activity assays were performed at Reaction Biology Corporation. […] DMSO was used as control. […] Experiments were performed in duplicates. The concentrations of kinases and substrates used in the assays are indicated on Table S1. Kinase activity was quantified using the ADP-Glo™ Kinase Assay System (Promega, Madison, WI) following the manufacturer's recommendations.
A general note: ADP-Glo turns the ADP formed in a reaction into a luminescent signal.

Assay [2] deals with T2, Src (Homo sapiens, UniProt P12931).
T2 construct: purchased Invitrogen PR4336E
T2 sequence (P12931 whole entry): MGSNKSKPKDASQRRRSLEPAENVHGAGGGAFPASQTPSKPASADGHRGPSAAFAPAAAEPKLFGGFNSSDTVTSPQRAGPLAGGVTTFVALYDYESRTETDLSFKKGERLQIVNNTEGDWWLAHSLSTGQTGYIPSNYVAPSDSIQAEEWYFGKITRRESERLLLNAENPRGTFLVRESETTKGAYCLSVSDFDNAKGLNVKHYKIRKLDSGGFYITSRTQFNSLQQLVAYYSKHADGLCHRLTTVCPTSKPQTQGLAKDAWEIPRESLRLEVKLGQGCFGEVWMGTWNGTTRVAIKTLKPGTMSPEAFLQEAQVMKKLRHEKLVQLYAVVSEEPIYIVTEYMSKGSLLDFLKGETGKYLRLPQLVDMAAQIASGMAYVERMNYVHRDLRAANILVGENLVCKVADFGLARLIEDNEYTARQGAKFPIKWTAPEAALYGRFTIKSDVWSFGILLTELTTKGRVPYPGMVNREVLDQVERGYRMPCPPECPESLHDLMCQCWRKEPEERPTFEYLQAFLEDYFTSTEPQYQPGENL
Put plainly: Cell-free kinase assay (Reaction Biology, ADP-Glo). The format is biochemical. As to conditions: inhibitor 500 nM; 100 μM ATP; average of duplicate. The protocol: Cell-free kinase activity assays were performed at Reaction Biology Corporation. Briefly, kinases were incubated with substrates, 100 μM ATP and a 3-fold serial dilution of compounds starting at 1 μM. DMSO was used as control. […] Experiments were performed in duplicates. The concentrations of kinases and substrates used in the assays are indicated on Table S1. Kinase activity was quantified using the ADP-Glo™ Kinase Assay System (Promega, Madison, WI) following the manufacturer's recommendations.

In assay [3] the test system is MOLM-14 cells. Put plainly: Antiproliferative activity (CellTitre-Blue, 72 h). In kind it is cell-based, human. As to conditions: 72 h incubation, triplicates, read-out: IC50 (mean ±SD, nM) MOLM-14. The protocol: (§1) Cells were seeded into 96-well tissue culture-treated plates at 2.0 × 10^4 cells/mL for up to 24 h. DMSO stock solutions of compounds were serially diluted first in DMSO and subsequently into RPMI before being added to the cell cultures in triplicates, with 10 μM being the highest tested concentration. The plates were incubated for 72 h as above. The CellTitre-Blue assay (Promega, Madison WI) was then added to the cultures and incubated a further 4 h before the fluorescence measured following the manufacturers recommendations. The fluorescence data from compounds were normalized to that DMSO and the resulting data fitted to a non-linear regression equation to obtain IC50 using GraphPad Prism 5.0 Software (La Jolla, CA, USA).

The subject of assay [4] is MOLM-14 (ITD, F691 L) cells. Nature of the assay: Antiproliferative activity (CellTitre-Blue, 72 h). In kind it is cell-based, human. The protocol:
as §1

The test system of assay [5] is MV4–11 cells. Nature of the assay: Antiproliferative activity (CellTitre-Blue, 72 h). In kind it is cell-based, human. As to conditions: for IC50: 72 h incubation, triplicates, read-out: IC50 (mean ±SD, nM) MV4–11. The protocol: as §1
Assay [6] relates to MOLM-14 (ITD, D835Y) cells. Nature of the assay: Antiproliferative activity (CellTitre-Blue, 72 h). The format is cell-based, human. As to conditions: 72 h incubation, triplicates, read-out: IC50 (mean ±SD, nM) MOLM-14 (ITD, D835Y). The protocol:
as §1

[7] abbreviates: Homo sapiens, MOLM-14, 72 h, 72 h incubation, triplicates, read-out: IC50 (mean ±SD, nM) MOLM-14 (ITD, F691 L).

Structures are written as SMILES. Read-outs that look alike come from different tables or passages of the source. Some results are limits rather than exact numbers.

The inhibition is the share of the control response that was lost under treatment. A high value points to a response far below the control. What is called IC50 is the concentration that gives 50% inhibition.

For the compound `Cc1ccc(C(=O)Nc2ccc(CN3CCN(C)CC3)c(C(F)(F)F)c2)cc1C#Cc1c(N)ncc2ccccc12` [Compound 4], the inhibition at 0.5 µM was 93% in assay [1] and 100% in assay [2].
On the same counts, the results for `COc1ccc2c(N)ncc(C#Cc3cc(C(=O)Nc4ccc(CN5CCN(C)CC5)c(C(F)(F)F)c4)cnc3C)c2c1` [Compound 14] are 98% and 99%.
As to `Cc1ccc(C(=O)Nc2ccc(CN3CCN(C)CC3)c(C(F)(F)F)c2)cc1C#Cc1ccc(N)nc1` [Compound 2], the inhibition at 0.5 µM in assay [1] and in assay [2] was 99% each time.
On to `Cc1ccc2cnc(N)c(C#Cc3cc(C(=O)Nc4ccc(CN5CCN(C)CC5)c(C(F)(F)F)c4)cnc3C)c2c1` [Compound 13], for which the inhibition at 0.5 µM in assay [1] came to 100%; in assay [2], 98%. For the same compound, the half-maximal inhibitory concentration (IC50) worked out at 1.4 ± 0.03 nM in assay [3] (Homo sapiens, MOLM-14); 1.1 ± 0.04 nM in assay [4] (setting [7]); 0.4 ± 0.006 nM in assay [5] (Homo sapiens, MV4-11, 72 h); 4.7 ± 0.03 nM in assay [6] (Homo sapiens, MOLM-14, 72 h).
`CC1(COc2ccc3c(c2)ncn3-c2ccc3cccc(N4CCC(N)CC4)c3n2)COC1` [Crenolanib, reference compound]: the inhibition at 0.5 µM in assay [1] was 99%. Further, the IC50 in assay [3] (Homo sapiens, MOLM-14) was determined as 4.5 ± 0.8 nM; in assay [4] (setting [7]), 15.6 ± 0.4 nM; in assay [5] (Homo sapiens, MV4-11, 72 h), 3.1 ± 0.06 nM; in assay [6] (Homo sapiens, MOLM-14, 72 h), 6.6 ± 0.03 nM.
In the case of `Cc1ccc(C(=O)Nc2ccc(CN3CCN(C)CC3)c(C(F)(F)F)c2)cc1C#Cc1cnc2cccnn12` [Ponatinib, reference compound], the IC50 is 0.5 ± 0.1 nM in assay [3] (Homo sapiens, MOLM-14); 6.8 ± 0.03 nM in assay [4] (Homo sapiens, MOLM-14, 72 h incubation, triplicates, read-out: IC50 (mean ±SD, nM) MOLM-14 (ITD, F691 L)); 0.1 ± 0.001 nM in assay [5] (Homo sapiens, MV4-11); 52.6 ± 0.3 nM in assay [6] (Homo sapiens, MOLM-14).
With `Cc1ccc(C(=O)Nc2ccc(CN3CCN(C)CC3)c(C(F)(F)F)c2)cc1C#Cc1cnc(N)c2ccccc12` [Compound 15], the inhibition at 0.5 µM amounted to 100% in assay [1] and 97% in assay [2]. Further, the concentration for half-maximal inhibition (IC50) is no more than 15 nM in assay [4] (setting [7]) and no more than 15 nM in assay [6] (Homo sapiens, MOLM-14, 72 h).
Consider `COc1ccc2cnc(N)c(C#Cc3cc(C(=O)Nc4ccc(CN5CCN(C)CC5)c(C(F)(F)F)c4)cnc3C)c2c1` [Compound 18], for which the “%FLT3 inhibition” value in assay [1] was 97%. Moreover, the IC50 in assay [3] turned out to be 0.2 ± 0.002 nM; in assay [4] (72 h incubation, triplicates, read-out: IC50 (mean ±SD, nM) MOLM-14 (ITD, F691 L)), 1.1 ± 0.04 nM; in assay [4] (Table S2, superscript g, the values are: IC50), 1.1 nM; in assay [5] it was 0.2 ± 0.001 nM; in assay [6], 11.1 ± 0.08 nM. Moreover, the IC50 MV4-11 in assay [5] (Table S2, superscript d, the values are: IC50) is 0.2 nM. The “%Src inhibition” value in assay [2] is listed as 98%.
Turning to `Cc1ncc(C(=O)Nc2ccc(CN3CCN(C)CC3)c(C(F)(F)F)c2)cc1C#Cc1cnc(N)c2ccccc12` [Compound 16], the inhibition at 0.5 µM in assay [1] turned out to be 98%; in assay [2] it was 100%.
Turning to `Cc1ccc(C(=O)Nc2ccc(CN3CCN(C)CC3)c(C(F)(F)F)c2)nc1C#Cc1c(N)ncc2ccc(Cl)cc12` [Compound 11], the figures for the inhibition at 0.5 µM in assay [1] and in assay [2] were 43% and 16%, respectively. The IC50 in assay [4] (setting [7]) is no more than 15 nM; in assay [6] (Homo sapiens, MOLM-14, 72 h) it was no more than 15 nM.
With `Cc1ncc(C(=O)Nc2ccc(CN3CCN(C)CC3)c(C(F)(F)F)c2)cc1C#Cc1cnc(NC2CC2)c2ncccc12` [Compound 21], the values for the inhibition at 0.5 µM in assay [1] and in assay [2] were 80% and 20%, respectively.
For the compound `Cc1ccc(C(=O)Nc2ccc(CN3CCN(C)CC3)c(C(F)(F)F)c2)cc1C#Cc1cncc2ccccc12` [Compound 22], the inhibition at 0.5 µM in assay [1] was 98%; in assay [2], 100%.
On the same counts, the results for `Cc1ccc2cnc(N)c(C#Cc3cc(C(=O)Nc4ccc(CN5CCN(C)CC5)c(C(F)(F)F)c4)ccc3C)c2c1` [Compound 12] are 98% and 100%.
For `Cc1ncc(C(=O)Nc2ccc(CN3CCN(C)CC3)c(C(F)(F)F)c2)cc1C#Cc1cncc2ncccc12` [Compound 24], the inhibition at 0.5 µM in assay [1] came out at 100%; in assay [2] it was 98%. Besides, the IC50 in assay [3] (Homo sapiens, MOLM-14) came to 0.2 ± 0.01 nM; in assay [4] (setting [7]), 1.8 ± 0.08 nM; in assay [5] (Homo sapiens, MV4-11, 72 h), 0.2 ± 0.009 nM; in assay [6] (Homo sapiens, MOLM-14, 72 h), 3 ± 0.3 nM.
Take `Cc1ccc(C(=O)Nc2ccc(CN3CCN(C)CC3)c(C(F)(F)F)c2)cc1C#Cc1cccnc1N` [Compound 1]: the inhibition at 0.5 µM in assay [1] is 96%; in assay [2], 99%.
As to `CC(C)(C)c1cc(NC(=O)Nc2ccc(-c3cn4c(n3)sc3cc(OCCN5CCOCC5)ccc34)cc2)no1` [Quizartinib, reference compound], the IC50 in assay [3] (Homo sapiens, MOLM-14) came to 0.5 ± 0.02 nM; in assay [4] (setting [7]), 48.5 ± 0.6 nM; in assay [5] (Homo sapiens, MV4-11, 72 h), 0.4 ± 0.02 nM; in assay [6] (Homo sapiens, MOLM-14, 72 h) it was 23 ± 0.5 nM.
For `Cc1ccc(C(=O)Nc2ccc(CN3CCN(C)CC3)c(C(F)(F)F)c2)cc1C#Cc1c(N)ncc2ccc(Cl)cc12` [Compound 8], at 0.5 µM the inhibition in assay [1] was 97%. For the same compound, in assay [5] (Homo sapiens, MV4-11, 72 h), the IC50 is roughly 0.5 nM.
As to `Cc1cnc(C(=O)Nc2ccc(CN3CCN(C)CC3)c(C(F)(F)F)c2)cc1C#Cc1c(N)ncc2ccc(Cl)cc12` [Compound 10], the inhibition at 0.5 µM in assay [1] was 75%; in assay [2], 93%.
As for `CO[C@@H]1[C@H](N(C)C(=O)c2ccccc2)C[C@H]2O[C@]1(C)n1c3ccccc3c3c4c(c5c6ccccc6n2c5c31)C(=O)NC4` [Midostaurin, reference compound], the IC50 in assay [3] (Homo sapiens, MOLM-14) came out at 16.1 ± 0.02 nM.
Turning to `Cc1ccc(C(=O)Nc2ccc(CN3CCN(C)CC3)c(C(F)(F)F)c2)cc1C#Cc1cncc2ncccc12` [Compound 23], the inhibition at 0.5 µM in assay [1] and in assay [2] was 99% throughout.
For the compound `Cc1ncc(C(=O)Nc2ccc(CN3CCN(C)CC3)c(C(F)(F)F)c2)cc1C#Cc1c(N)ncc2ccc(Cl)cc12` [Compound 9], the inhibition at 0.5 µM in assay [1] and in assay [2] was 98% in each case. Besides, the concentration for half-maximal inhibition (IC50) in assay [3] (Homo sapiens, MOLM-14) was 2.3 ± 0.1 nM; in assay [4] (setting [7]), 6.9 ± 0.05 nM; in assay [5], 0.4 ± 0.04 nM; in assay [5] (Homo sapiens, MV4-11, 72 h), roughly 0.5 nM; in assay [6] (Homo sapiens, MOLM-14, 72 h) it was 10.4 ± 0.3 nM.
For `Cc1ccc(C(=O)Nc2ccc(CN3CCN(C)CC3)c(C(F)(F)F)c2)cc1C#Cc1c(N)ncc2ccc(F)cc12` [Compound 6], the inhibition at 0.5 µM in assay [1] was determined as 90%; in assay [2], 99%.
On the same counts, the results for `Cc1ncc(C(=O)Nc2ccc(CN3CCN(C)CC3)c(C(F)(F)F)c2)cc1C#Cc1cnc(N)c2ccc(F)cc12` [Compound 17] are 98% and 98%.
On to `Cc1ccc(C(=O)Nc2ccc(CN3CCN(C)CC3)c(C(F)(F)F)c2)cc1C#Cc1nc(Br)cnc1N` [Compound 3], for which the inhibition at 0.5 µM in assay [1] worked out at 81%; in assay [2], 99%.
On to `Cc1ccc(C(=O)Nc2ccc(CN3CCN(C)CC3)c(C(F)(F)F)c2)cc1C#Cc1cnc(N)c2ncccc12` [Compound 19], for which the inhibition at 0.5 µM in assay [1] was determined as 99%; in assay [2] it was 98%.

The values are drawn from PMC6413339 (EBioMedicine, 2019).
